Data as given in US8415327B2, “Methods of and compositions for reducing cell death” (priority 2009, dated 2013).
“Also recorded” adds a separate entry of the source.

How the values were obtained:
RGC-5 cells [1] = assay: Menadione-induced cell death in RGC-5 cells (calcein-AM viable cell count); format: cell-based; settings: for neuroprotection against menadione-induced cell death / effectiveness as neuroprotectant compared with PB3: RGC-5 cells; for % of the cells protected from menadione-induced cell death: 17.8 μM menadione, 24 hours; for effectiveness as neuroprotectant compared with PB3: menadione
Description: Cell Culture: Cells of RGC-5 (ATCC Deposit Accession No. PTA-6600), a neuronal cell line, were suspended in growth medium and plated in 96-well plates at a density of 2,000 cells per well. After 24 hours in culture, cells were treated with 17.8 μM menadione (Sigma-Aldrich, St. Louis, Mo.). Menadione creates oxidative stress resulting in cell death. PB3, PB4, or PB6 was added to the wells directly before menadione treatment. After 24 hours of menadione treatment, the cells were stained with calcein-AM and photographed.

[2] = Sulfhydryl reducing activity (DTNB); format: biochemical
Description: Sulfhydryl reducing activity: Sulfhydryl reducing activity was measured with 5-5′-dithio-bis(2-nitrobenzoic acid) (DTNB), which undergoes a colorimetric change when its disulfide linkage is reduced. Reaction of various concentrations of dithiothreitol, tris(carboxyethyl)phosphine, PB1, or PB2 with 30 mM DTNB in methanol was carried out in buffer at pH 5, 7, and 9. The sulfhydryl reduction potentials of PB1 and PB2 were assessed both before and after borane deprotection with DABCO.

[3] = test system: retinal endothelial cells; assay: Protection of retinal endothelial cells from H2O2 oxidative damage; format: cell-based, murine; settings: for most effective concentration against oxidative insults: tested at 1-1000 μM
Description: Cell Culture: Murine endothelial cells were cultured as described in Experiment 3. Endothelial cells were treated directly with high levels of H2O2 in the absence or presence of PB1 and PB2 at a concentrations of 1-1000 μM.

RGC-5 cells [4] = assay: Rescue of RGC-5 cells from METC-active drugs (menadione, rotenone, antimycin A), calcein/propidium iodide viability assay; settings: for protection/rescue from death induced by menadione, rotenone and antimycin A: RGC-5 cells, 24 hours co-incubation; for rescue of RGC-5 cells at higher concentrations: most likely due to toxicity; for viability (live cells compared to untreated controls): 24 hours
Description: Cell Culture: RGC-5 cells were cultured in Dulbecco's modified Eagle's medium (DMEM) (Mediatech, Inc., Manassas, Va.). containing 1 g/L glucose, supplemented with 10% fetal bovine serum, 100 U/mL penicillin, and 100 μg/mL streptomycin (Mediatech, Inc.). Cells were passaged every 48 to 72 hours when cells were approximately 60 to 75% confluent, replated at a 1:20 dilution in a 75 cm^2 flask in 20 ml of cell culture media and incubated at 37° C. in humidified 5% CO2. Experiments were performed in duplicate or triplicate.
Cell Treatment and Assessment of Viability: Cells were plated in 96-well plates at a density of 60 cells/mm^2 in 50 μL of media. Approximately 24 hours after plating, 50 μL of media containing either menadione, rotenone, or antimycin A, either with or without PB1 and PB2, was added to the cells to generate the final concentrations of 10 nM, 1 μM, or 100 μM. Control wells received media containing vehicle alone. Following 24 hours of treatment, media was aspirated from wells using a 25-gauge needle and cells stained with calcein-AM (10 μg/mL) and propidium iodide (1 μg/mL) (both Invitrogen, Carlsbad, Calif.) in PBS for 30 minutes. The staining solution was aspirated using a 25-gauge needle and replaced with PBS. Three randomly chosen fields per well were photographed on an Axiovert 135 microscope under epifluorescence with a Nikon D70s digital SLR camera (Nikon, Melville, N.Y.) at a resolution of 3008×2000 pixels and an exposure time of 1.6 seconds. Live (calcein-positive) and dead (propidium iodide-positive) cells were assessed using Image) software. Pictures were batch analyzed using a macro containing the following actions: subtract background, threshold, erode, erode, watershed, and analyze particles between the sizes of 1000 pixels and infinity. […] Each experiment was analyzed with respect to its own set of controls to account for variation in passage number of the RGC-5 cells and small differences between batches of cryopreserved RGC-5 cells.
Statistics: Viability was assessed as number of live cells/mm^2, and compared to the untreated controls of each experiment. Means were compared using Student's unpaired t-test.
RGC-5 cells plated in 96-well plates were treated for 24 hours with the redox cycling agent menadione, the complex I inhibitor rotenone, or the complex III inhibitor antimycin A, at final concentrations ranging from 100 nM to 31.6 μM (menadione) or 1 μM to 316 μM (rotenone or antimycin A). […] RGC-5 cells were co-incubated with these mitochondrial electron transporter chain (METC)-drugs and the borane-phosphines PB1 or PB2 for 24 hours, followed by assessment of cell viability by calcein/propidium iodide assay. TCEP (100 μM) served as a positive control.

[5] = Superoxide scavenging (hydroethidine fluorescence, xanthine/xanthine oxidase); format: biochemical
Description: Superoxide scavenging: The ability of PB1 and PB2 to scavenge superoxide was quantified essentially as described ([…] et al., Invest. Opthalmol. Vis. Sci. 47:3878 (2006)). Essentially, fluorescence of hydroethidine was measured after exposure to superoxide generated by xanthine/xanthine oxidase, in the presence or absence of PB1, PB2, or polyethylene glycol-conjugated superoxide dismutase used as positive control.

[6] = test system: retinal endothelial cells; assay: Radiation-induced death of retinal endothelial cells, calcein-AM/propidium iodide viability assay; format: cell-based, murine; settings: for rescue: 1 μM at the time of irradiation, 72 hours; for radio-protection: administered before or at the time of irradiation
Description: Cell Culture: Murine endothelial cells were isolated from Immortomice, which express a temperature-sensitive Simian virus 40 large T antigen, using sheep anti-rat Dynabeads coated with the rat anti-mouse PECAM-1 monoclonal antibody MEC13.3. […] Irradiation and Viability Assays: The cells were plated onto 1% gelatin coated 96-well plates at a density of 2,000 cells per well. For irradiation, control and treatment groups were removed from the incubator. Treatment groups received single doses of radiation between 1 and 30 Gray using an irradiator containing ^137Cesium (JL Shepherd & Associates) using a rotating platform to ensure uniform delivery. Control groups were left at room temperature during irradiation of the treatment groups. PB1 or PB2 was administered 18 hours before, immediately before, or 18 hours after irradiation. Media was aspirated 48 or 72 hours after irradiation using a 30 gauge needle and the cells were incubated in staining containing calcein-AM and propidium iodide in PBS for 30 minutes at room temperature in the dark. Digital photomicrographs of the wells were taken at a total magnification of 200× on a Zeiss Axiovert inverted microscope under epifluorescence. Calcein-positive (viable) and propidium iodide-positive (dead) cells were counted using NIH ImageJ software. Statistical significance was determined using the Student's t-tests.

B.CCCCCCOC(=O)CCP(CCC(=O)OCCCCCC)c1ccccc1 [PB3, bis(3-propionic acid hexyl ester)phenylphosphine borane complex]
neuroprotection against menadione-induced cell death (RGC-5 cells [1]): neuroprotective | % of the cells protected from menadione-induced cell death (RGC-5 cells [1]; compound 1 μM): 46.4±16.8% | % of the cells protected from menadione-induced cell death (RGC-5 cells [1]; compound 10 μM): 38.3±12.2% | % of the cells protected from menadione-induced cell death (RGC-5 cells [1]; compound 100 μM): 30.9±4.3%

[BH3-][P+](CC(=O)NCC)(c1ccccc1)c1ccccc1 [PB6, (2-Ethyl acetamide)diphenylphosphine borane complex]
neuroprotection against menadione-induced cell death (RGC-5 cells [1]): neuroprotective | effectiveness as neuroprotectant compared with PB3 (RGC-5 cells [1]): less effective neuroprotectants than PB3 | % of the cells protected from menadione-induced cell death (RGC-5 cells [1]; compound 10 pM): 25.6±8.4%

[BH3-][P+](CCC(=O)OCCCCCC)(c1ccccc1)c1ccccc1 [PB4, (3-propionic acid hexyl ester)diphenylphosphine borane complex]
neuroprotection against menadione-induced cell death (RGC-5 cells [1]): neuroprotective | effectiveness as neuroprotectant compared with PB3 (RGC-5 cells [1]): less effective neuroprotectants than PB3 | % of the cells protected from menadione-induced cell death (RGC-5 cells [1]; compound 1 μM): 19.0±5.5%

[BH3-][P+](CCC(=O)OC)(c1ccccc1)c1ccccc1 [PB2, (3-propionic acid methyl ester)diphenylphosphine borane complex]
disulfide reduction as mechanism of protection [2]: involves disulfide reduction | viable cell counts, % of control ([3]; 1 µM): 9.0±1.6% | most effective concentration against oxidative insults ([3]; H2O2): 1 µM | toxicity to RGC-5 cells (RGC-5 cells [4]): toxic | protection/rescue from death induced by menadione, rotenone and antimycin A (RGC-5 cells [4]): significant rescue; also recorded: significant protection | rescue of RGC-5 cells at higher concentrations (RGC-5 cells [4]): little or no rescue | superoxide scavenging as mechanism of protection [5]: not superoxide scavenging | rescue ([6]; 3 Gy): 46% | radio-protection [6]: effective radio-protectants

[BH3-][P+](CCC(=O)OC)(CCC(=O)OC)c1ccccc1 [PB1, bis(3-propionic acid methyl ester)phenylphosphine borane complex]
disulfide reduction as mechanism of protection [2]: involves disulfide reduction | viable cell counts, % of control ([3]; H2O2, compound 1 μM, 24 hours, 4.2±1.1% without compound): 10.8±2.3% | most effective concentration against oxidative insults ([3]; H2O2): 1 µM | protection/rescue from death induced by menadione, rotenone and antimycin A (RGC-5 cells [4]): significant rescue; also recorded: significant protection | viability (live cells compared to untreated controls) (RGC-5 cells [4]; antimycin A, compound 100 μM, vs. 34±2% without compound): 74±4% | rescue of RGC-5 cells at higher concentrations (RGC-5 cells [4]): little or no rescue | viability (live cells compared to untreated controls) (RGC-5 cells [4]; menadione, compound 100 μM, vs. 34±4% without compound): 83±5% | viability (live cells compared to untreated controls) (RGC-5 cells [4]; rotenone, PB1 concentration not restated (100 μM in preceding sentence), vs. 25±3% without compound): 36±3% | superoxide scavenging as mechanism of protection [5]: not superoxide scavenging | protection against radiation exposures ([6]; 100 nM, 18 hours after irradiation, all radiation exposures tested): significant protection | viable cell counts, % of non-irradiated control ([6]; 1 μM administered at the time of irradiation, 3 Gy, 72 hours after irradiation, 29±6% without compound): 54±6% | rescue ([6]; 3 Gy): 35% | radiomitigation: change in viable cell counts ([6]; administered 18 hours after exposure to ionizing radiation up to 30 Gy): significant increases in viable cell counts | radio-protection [6]: effective radio-protectants | protection against radiation exposure ([6]; all PB1 treatment levels, 18 hours after irradiation, 30 Gy, p<0.05): significant protection
